Source: PubChem BioAssay AID330 (DTP/NCI, 2004)
“And” between values parts separate entries of the source, which are not always exact repeats. Identical values can stand only once. Inconclusive results and toxic doses are left out. Rule for the calls: active = survival T/C of 150% or more; inactive = T/C below 125% in these data.

System: P388 leukemia ip, CD2F1 mice, survival T/C
Experiment: NCI In Vivo Anticancer Drug Screen. Data for tumor model P388 Leukemia (intraperitoneal) in CD2F1 (CDF1) mice
Details: endpoint: median survival time, higher = longer survival
Procedure, shortened: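 Mice carrying the transplanted tumor received test compound or vehicle. Survival was recorded in each group, and the value is the treated-group measurement divided by that of the vehicle-treated control group.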

[1] = dose: 100.0 mg/kg/injection, schedule: Q04DX003 (ip), vehicle: saline with Tween-80
[2] = dose: 200.0 mg/kg/injection, schedule: Q04DX003 (ip), vehicle: saline with Tween-80
[3] = dose: 400.0 mg/kg/injection, schedule: Q04DX003 (ip), vehicle: saline with Tween-80
[4] = dose: 25.0 mg/kg/injection, schedule: Q01DX005 (ip), vehicle: saline with Tween-80
[5] = dose: 50.0 mg/kg/injection, schedule: Q01DX005 (ip), vehicle: saline with Tween-80
[6] = dose: 100.0 mg/kg/injection, schedule: Q01DX005 (ip), vehicle: saline with Tween-80
[7] = dose: 200.0 mg/kg/injection, schedule: Q01DX005 (ip), vehicle: saline with Tween-80
[8] = dose: 50.0 mg/kg/injection, schedule: Q01DX005 (ip), vehicle: Klucel (hydroxypropylcellulose) (HPC)
[9] = dose: 50.0 mg/kg/injection, schedule: Q01DX009 (ip), vehicle: saline with Tween-80
[10] = dose: 100.0 mg/kg/injection, schedule: Q01DX009 (ip), vehicle: saline with Tween-80
[11] = dose: 200.0 mg/kg/injection, schedule: Q01DX009 (ip), vehicle: saline with Tween-80
[12] = dose: 50.0 mg/kg/injection, schedule: Q04DX003 (ip), vehicle: saline with Tween-80
[13] = dose: 30.0 mg/kg/injection, schedule: Q01DX005 (ip), vehicle: Klucel (hydroxypropylcellulose) (HPC)

Measured: T/C

C[C](C)(C)[Sn]([Cl])([c]1ccccc1)[C](C)(C)C
inactive: [1] 94 % of control | [2] 104 % of control | [3] 95 % of control

Cc1cc2cc3ccc(Cl)nn3c2nn1
inactive: [4] 104 % of control | [5] 99 % of control | [6] 95 % of control | [7] 96 % of control

COc1cc2nncc(Cl)c2cc1OC
inactive: [8] 101 % of control

O=C1NC(=O)N(C(F)(F)F)C(F)(F)N1C(F)(F)F
inactive: [8] 107 % of control | dose: 100.0 mg/kg/injection, schedule: Q01DX005 (ip), vehicle: Klucel (hydroxypropylcellulose) (HPC) 107 % of control

COCOc1cccc2c1C(O)CC2 (centres undefined)
inactive: dose: 60.0 mg/kg/injection, schedule: Q01DX005 (ip), vehicle: saline with Tween-80 100 % of control | dose: 120.0 mg/kg/injection, schedule: Q01DX005 (ip), vehicle: saline with Tween-80 100 % of control | dose: 240.0 mg/kg/injection, schedule: Q01DX005 (ip), vehicle: saline with Tween-80 98 % of control

CC1(C)O[P+]2(OC(C)(C)c3ccccc32)c2ccccc21
inactive: dose: 100.0 mg/kg/injection, schedule: Q04DX002 (ip), vehicle: Klucel (hydroxypropylcellulose) (HPC) 96 % of control | dose: 200.0 mg/kg/injection, schedule: Q04DX002 (ip), vehicle: Klucel (hydroxypropylcellulose) (HPC) 97 % of control | dose: 400.0 mg/kg/injection, schedule: Q04DX002 (ip), vehicle: Klucel (hydroxypropylcellulose) (HPC) 96 % of control

COc1ccc(C2(O)CC3CCC(C2)N3C)cc1 (centres undefined)
inactive: [5] 93 % of control | [6] 100 % of control | [7] 97 % of control

CCCCCCCCCCCCCCCC(=O)OC(=O)CCCCCCCCCCCCCCC
inactive: [9] 100 % of control | [10] 95 % of control | [11] 94 % of control

CC1=NN(C(=O)c2ccncc2)C(=O)C1N=Nc1ccc(-c2ccc(N)cc2)cc1 (centres undefined)
inactive: [9] 97 % of control | [10] 98 % of control | [11] 96 % of control

O=CC1C(=O)NC(=O)NC1=O
inactive: dose: 25.0 mg/kg/injection, schedule: Q04DX003 (ip), vehicle: saline 112 % of control | dose: 50.0 mg/kg/injection, schedule: Q04DX003 (ip), vehicle: saline 100 % of control | dose: 100.0 mg/kg/injection, schedule: Q04DX003 (ip), vehicle: saline 114 % of control

COC(=O)C12OCC34C(CC5C(C)=C(O)C(=O)CC5(C)C3C(O)C1O)OC(=O)C(OC(=O)N(C)[Si](C)(C)C(C)(C)C)C24 (centres undefined)
inactive: dose: 125.0 micrograms/kg/injection, schedule: Q01DX005 (ip), vehicle: Klucel (hydroxypropylcellulose) (HPC) 101 % of control | dose: 250.0 micrograms/kg/injection, schedule: Q01DX005 (ip), vehicle: Klucel (hydroxypropylcellulose) (HPC) 95 % of control | dose: 500.0 micrograms/kg/injection, schedule: Q01DX005 (ip), vehicle: Klucel (hydroxypropylcellulose) (HPC) 96 % of control | dose: 1000.0 micrograms/kg/injection, schedule: Q01DX005 (ip), vehicle: Klucel (hydroxypropylcellulose) (HPC) 95 % of control

C=CCNC(=O)c1ccccc1SC(C)=O
inactive: [9] 117 % of control and 119 % of control | [10] 120 % of control | [11] 114 % of control

C[n+]1ccc(I)c2ccc(Cl)cc21
inactive: dose: 12.5 mg/kg/injection, schedule: Q01DX009 (ip), vehicle: Klucel (hydroxypropylcellulose) (HPC) 101 % of control | dose: 25.0 mg/kg/injection, schedule: Q01DX009 (ip), vehicle: Klucel (hydroxypropylcellulose) (HPC) 104 % of control | dose: 50.0 mg/kg/injection, schedule: Q01DX009 (ip), vehicle: Klucel (hydroxypropylcellulose) (HPC) 109 % of control

O=C1C(C2=CCCCC2)CCCC1C1=CCCCC1 (centres undefined)
inactive: [9] 89 % of control | [10] 91 % of control | [11] 104 % of control

COc1ccc(CC(NC(=O)NSc2ccccc2)C(=O)NC2C(CO)OC(n3cnc4c(N(C)C)ncnc43)C2O)cc1 (centres undefined)
inactive: dose: 12.5 mg/kg/injection, schedule: Q01DX005 (ip), vehicle: saline with Tween-80 90 % of control | [4] 93 % of control | [5] 88 % of control and 91 % of control

O=CC(O)C(O)C1[O][Sb][O]C1CO (centres undefined)
inactive: dose: 50.0 mg/kg/injection, schedule: Q01DX005 (ip), vehicle: saline 99 % of control | dose: 100.0 mg/kg/injection, schedule: Q01DX005 (ip), vehicle: saline 100 % of control | dose: 200.0 mg/kg/injection, schedule: Q01DX005 (ip), vehicle: saline 103 % of control

CCOC(=Nc1ccc(F)cc1)SC(c1ccccc1)(c1ccccc1)c1ccccc1
inactive: [5] 110 % of control | [6] 104 % of control | [7] 99 % of control

N#C/C(=C\c1cccc2ccccc12)c1ccc(Cl)cc1
inactive: [12] 94 % of control | [1] 97 % of control | [2] 103 % of control | [3] 97 % of control

O=C1C2=C(Nc3cc([N+](=O)[O-])ccc3N2)OC1c1ccccc1O (centres undefined)
inactive: [13] 106 % of control | dose: 60.0 mg/kg/injection, schedule: Q01DX005 (ip), vehicle: Klucel (hydroxypropylcellulose) (HPC) 103 % of control and 90 % of control | dose: 120.0 mg/kg/injection, schedule: Q01DX005 (ip), vehicle: Klucel (hydroxypropylcellulose) (HPC) 101 % of control | dose: 240.0 mg/kg/injection, schedule: Q01DX005 (ip), vehicle: Klucel (hydroxypropylcellulose) (HPC) 90 % of control

CCCCN(CCCC)Cc1c(C)[nH]c2ccc(N(C)C)cc2c1=O
inactive: dose: 50.0 mg/kg/injection, schedule: Q01DX009 (ip), vehicle: suspension in saline 108 % of control | dose: 100.0 mg/kg/injection, schedule: Q01DX009 (ip), vehicle: suspension in saline 103 % of control

Cc1ccc2sc(-c3ccccc3)c(CCl)c(=O)c2c1
inactive: dose: 100.0 mg/kg/injection, schedule: Q04DX002 (ip), vehicle: saline with Tween-80 102 % of control | dose: 200.0 mg/kg/injection, schedule: Q04DX002 (ip), vehicle: saline with Tween-80 108 % of control | dose: 400.0 mg/kg/injection, schedule: Q04DX002 (ip), vehicle: saline with Tween-80 108 % of control

COc1cccc(-n2c(=S)[nH]c3ccccc3c2=O)c1
inactive: [5] 93 % of control | [6] 87 % of control | [7] 89 % of control

N#CC1(O)CCCCC1
inactive: dose: 2.5 mg/kg/injection, schedule: Q01DX009 (ip), vehicle: saline with Tween-80 100 % of control | dose: 5.0 mg/kg/injection, schedule: Q01DX009 (ip), vehicle: saline with Tween-80 104 % of control | dose: 10.0 mg/kg/injection, schedule: Q01DX009 (ip), vehicle: saline with Tween-80 104 % of control

CC1(C)N=C(N)N=C(N)N1c1ccc(C(C#N)CCCc2ccccc2)cc1 (centres undefined)
inactive: dose: 7.5 mg/kg/injection, schedule: Q01DX005 (ip), vehicle: Klucel (hydroxypropylcellulose) (HPC) 100 % of control | dose: 15.0 mg/kg/injection, schedule: Q01DX005 (ip), vehicle: Klucel (hydroxypropylcellulose) (HPC) 101 % of control | [13] 103 % of control

CC(C)c1cccc(C(C)C)c1Oc1ccc([N+](=O)[O-])cc1[N+](=O)[O-]
inactive: [12] 94 % of control | [1] 93 % of control | [2] 92 % of control | [3] 90 % of control

CCCCOc1cccc2c(NCCCCCCCCNc3c4ccccc4nc4c(OCCCC)cccc34)c3ccccc3nc12
inactive: dose: 0.62 mg/kg/injection, schedule: Q## X009 (ip), vehicle: lactic acid 107 % of control | dose: 1.25 mg/kg/injection, schedule: Q## X009 (ip), vehicle: lactic acid 99 % of control | dose: 2.5 mg/kg/injection, schedule: Q## X009 (ip), vehicle: lactic acid 99 % of control | dose: 5.0 mg/kg/injection, schedule: Q## X009 (ip), vehicle: lactic acid 106 % of control | dose: 10.0 mg/kg/injection, schedule: Q## X009 (ip), vehicle: lactic acid 91 % of control

C=CCCc1c(OC)cccc1C1=NC(C)(C)CO1
inactive: [5] 106 % of control | [6] 102 % of control | [7] 100 % of control
